The target of the test is T1, full-length beta-Catenin (Uniprot ID P35222) (Homo sapiens, UniProt P35222).
T1 construct: 10 nM full-length beta-Catenin (Uniprot ID P35222)
T1 sequence (P35222 1-781): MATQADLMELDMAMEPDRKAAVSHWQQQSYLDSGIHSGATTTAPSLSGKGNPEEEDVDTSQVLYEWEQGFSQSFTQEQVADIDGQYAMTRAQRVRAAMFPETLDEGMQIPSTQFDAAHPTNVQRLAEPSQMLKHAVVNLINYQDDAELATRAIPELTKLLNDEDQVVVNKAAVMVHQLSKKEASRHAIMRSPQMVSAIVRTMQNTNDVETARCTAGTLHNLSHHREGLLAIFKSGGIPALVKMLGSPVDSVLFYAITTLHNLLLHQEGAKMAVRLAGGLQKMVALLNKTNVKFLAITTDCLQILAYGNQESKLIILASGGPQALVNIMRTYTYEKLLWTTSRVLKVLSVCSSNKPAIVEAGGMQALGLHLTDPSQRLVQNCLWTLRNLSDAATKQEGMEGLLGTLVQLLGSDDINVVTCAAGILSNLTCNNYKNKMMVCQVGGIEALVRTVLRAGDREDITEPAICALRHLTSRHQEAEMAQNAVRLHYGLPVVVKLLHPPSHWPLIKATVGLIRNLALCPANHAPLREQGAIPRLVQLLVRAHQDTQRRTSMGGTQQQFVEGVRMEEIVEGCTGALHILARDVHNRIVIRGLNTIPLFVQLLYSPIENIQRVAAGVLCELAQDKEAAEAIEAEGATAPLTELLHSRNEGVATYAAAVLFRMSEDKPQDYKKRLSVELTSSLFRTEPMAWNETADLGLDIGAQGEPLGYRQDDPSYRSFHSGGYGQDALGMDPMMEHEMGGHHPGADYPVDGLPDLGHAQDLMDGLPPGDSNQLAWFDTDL
Put plainly: Fluorescence polarization IC50 (beta-catenin / 5FAM-TCF4 10-53 competition). In kind it is binding. The note with it: fluorescence polarization; read-out: beta-Catenin FP IC50. (In general: Fluorescence polarisation rises when a labelled molecule tumbles more slowly, as on binding a larger partner.)

Broadly, the IC50 is the concentration that inhibits the measured activity by half. For the molecule `CC(=O)N1CCC[C@]12CC=CCCCC1(CCCC=CCCCOC(=O)N3CC[C@@](C(=O)N[C@@H](Cc4ccccc4)C(=O)N[C@@H](Cc4csc5ccccc45)C(=O)N[C@@H](CCCN4CCOCC4)C(N)=O)(C3)NC(=O)[C@H](CC(C)C)NC(=O)[C@H](Cc3ccccc3)NC(=O)[C@H](C)NC(=O)[C@H](CCCCNC(C)C)NC(=O)[C@H](CCC(N)=O)NC(=O)[C@H](CC(=O)O)NC1=O)NC(=O)[C@H](CC1CCCCC1)NC(=O)[C@H](CC(N)=O)NC2=O` (stereo partly drawn) [I-2428, Ac-PL3-Asn-Cha-B5-Asp-Gln-iPrLys-Ala-Phe-Leu-PyrS2-Phe-BztA-MorphNva-NH2], the IC50 was determined as 401 nM.

As for `CCCc1cn(CCCC[C@H](NC(=O)[C@H](CO)NC(=O)[C@H](Cc2csc3ccccc23)NC(=O)[C@H](Cc2ccccc2C(F)(F)F)NC(=O)[C@]23CCN(C2)C(=O)OCCCC=CCCCC2(CCCC=CC[C@]4(CCCN4C(C)=O)C(=O)N[C@@H](CC(=O)O)C(=O)N[C@@H](CC(C)(C)C)C(=O)N2)C(=O)N[C@@H](CC(=O)O)C(=O)N[C@@H](Cc2cccc(C(=O)O)c2)C(=O)N[C@@H](C)C(=O)N[C@@H](C)C(=O)N[C@@H](Cc2ccccc2)C(=O)N[C@@H](CC(C)C)C(=O)N3)C(N)=O)nn1` (stereo partly drawn) [I-2432, Ac-PL3-Asp-Npg-B5-Asp-3COOHF-Ala-Ala-Phe-Leu-PyrS2-2F3MeF-BztA-Ser-[3C]TriAzLys-NH2], the IC50 was 60 nM. Take `CC(=O)N1CCC[C@]12CC=CCCCC1(CCCC=CCCCOC(=O)N3CC[C@@](C(=O)N[C@@H](Cc4ccccc4)C(=O)N[C@@H](Cc4csc5ccccc45)C(=O)N[C@@H](CCC(N)=O)C(N)=O)(C3)NC(=O)[C@H]([C@@H](C)O)NC(=O)[C@H](Cc3ccccc3)NC(=O)[C@H](C)NC(=O)[C@H](C)NC(=O)[C@H](Cc3c[nH]cn3)NC(=O)[C@H](CC(=O)O)NC1=O)NC(=O)[C@H](CC(C)(C)C)NC(=O)[C@H](CCO)NC2=O` (stereo partly drawn) [I-2438, Ac-PL3-Hse-Npg-B5-Asp-His-Ala-Ala-Phe-Thr-PyrS2-Phe-BztA-Gln-NH2]: the half-maximal inhibitory concentration (IC50) came to 1760 nM. Regarding `CC(=O)N1CCC[C@]12CC=CCCCC1(CCCC=CCCCOC(=O)N3CC[C@@](C(=O)N[C@@H](Cc4ccccc4)C(=O)N[C@@H](Cc4csc5ccccc45)C(=O)N[C@@H](CCC(N)=O)C(N)=O)(C3)NC(=O)[C@H](Cc3c[nH]cn3)NC(=O)[C@H](Cc3ccccc3)NC(=O)[C@H](C)NC(=O)[C@H](C)NC(=O)[C@H](CCC(N)=O)NC(=O)[C@H](CC(=O)O)NC1=O)NC(=O)[C@H](CC(C)(C)C)NC(=O)[C@H](CCO)NC2=O` (stereo partly drawn) [I-2439, Ac-PL3-Hse-Npg-B5-Asp-Gln-Ala-Ala-Phe-His-PyrS2-Phe-BztA-Gln-NH2], the IC50 was determined as 2760 nM.

Consider `CC(=O)N1CCC[C@]12CC=CCCCC1(CCCC=CCCCOC(=O)N3CC[C@@](C(=O)N[C@@H](Cc4ccccc4)C(=O)N[C@@H](Cc4csc5ccccc45)C(=O)N[C@@H](CCC(N)=O)C(N)=O)(C3)NC(=O)[C@H](Cc3c[nH]cn3)NC(=O)[C@H](Cc3ccccc3)NC(=O)[C@H](C)NC(=O)[C@H](C)NC(=O)[C@H](CCC(N)=O)NC(=O)[C@H](CC(=O)O)NC1=O)NC(=O)[C@H](CC(C)(C)C)NC(=O)[C@H](CC(N)=O)NC2=O` (stereo partly drawn) [I-2440, Ac-PL3-Asn-Npg-B5-Asp-Gln-Ala-Ala-Phe-His-PyrS2-Phe-BztA-Gln-NH2], for which the IC50 was 360 nM. For `CC(=O)N1CCC[C@]12CC=CCCCC1(CCCC=CCCCOC(=O)N3CC[C@@](C(=O)N[C@@H](Cc4ccccc4)C(=O)N[C@@H](Cc4csc5ccccc45)C(=O)N[C@@H](CCC(N)=O)C(N)=O)(C3)NC(=O)[C@H](CC(C)C)NC(=O)[C@H](Cc3ccccc3)NC(=O)[C@H](C)NC(=O)[C@H](C)NC(=O)[C@H](Cc3c[nH]cn3)NC(=O)[C@H](CC(=O)O)NC1=O)NC(=O)[C@H](CC(C)(C)C)NC(=O)[C@H](CC(N)=O)NC2=O` (stereo partly drawn) [I-2442, Ac-PL3-Asn-Npg-B5-Asp-His-Ala-Ala-Phe-Leu-PyrS2-Phe-BztA-Gln-NH2], the IC50 is 282 nM.

(Values after patent publication US20240116985A1, “STAPLED PEPTIDES AND METHODS THEREOF” (priority 2020, published 2024).)
